Source: ChEMBL document CHEMBL1275274, “Direct renin inhibitors as a new therapy for hypertension” (J Med Chem, 2010)
Residue numbers refer to the chain shown, from its start. Converted amounts (≈) assume the structure as drawn.

Tests used:
[1] = target: T1, Renin (Homo sapiens, UniProt P00797); format: cell-free, Plasma
T1 sequence (P00797 whole entry): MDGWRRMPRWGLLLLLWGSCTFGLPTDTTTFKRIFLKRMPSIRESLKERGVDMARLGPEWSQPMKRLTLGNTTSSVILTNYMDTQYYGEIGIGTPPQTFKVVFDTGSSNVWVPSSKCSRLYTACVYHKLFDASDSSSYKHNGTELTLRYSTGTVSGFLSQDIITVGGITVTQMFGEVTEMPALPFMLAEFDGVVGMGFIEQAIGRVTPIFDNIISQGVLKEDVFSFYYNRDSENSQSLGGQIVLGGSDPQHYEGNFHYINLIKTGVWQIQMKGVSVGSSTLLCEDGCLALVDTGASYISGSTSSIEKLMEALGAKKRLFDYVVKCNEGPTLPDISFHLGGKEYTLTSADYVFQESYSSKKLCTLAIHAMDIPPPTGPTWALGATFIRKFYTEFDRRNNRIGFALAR

[2] = target: T1, Renin; assay: Inhibition of human recombinant renin in buffer
[3] = Distribution coefficient, log D of the compound; format: physicochemical; conditions: octanol/water
[4] = Oral bioavailability in rat; format: ADME, organism-based; conditions: in vivo
[5] = Oral bioavailability in Wistar rat; format: ADME, organism-based; conditions: in vivo
[6] = Elimination half life in Wistar rat; format: ADME, organism-based; conditions: in vivo, read-out: beta t1/2 (converted)
[7] = Tmax in Wistar rat; format: ADME, organism-based; conditions: in vivo
[8] = target: T1, Renin; assay: Binding affinity to human recombinant renin by isothermal titration calorimetry
[9] = target: T1, Renin; assay: Inhibition of renin in human plasma; format: cell-free
[10] = target: T2, Renin (Macaca mulatta, UniProt Q6DLW5); assay: Inhibition of renin in monkey plasma
T2 sequence (Q6DLW5 whole entry): T1 sequence (P00797 whole entry) with T68A, I214L, S235A, Q270P, R406H

[11] = target: T1, Renin; assay: Inhibition of renin in pH 7.4 buffer
[12] = Aqueous solubility of the compound at pH 6.6 buffer; format: physicochemical
[13] = (§1) Oral bioavailability in dog; format: ADME, organism-based, Canis lupus familiaris; conditions: in vivo
[14] = Partition coefficient, log P of the compound at pH 7.4; format: physicochemical; conditions: octanol/water
[15] = system: Canis familiaris; assay: as §1; format: ADME, organism-based, Canis lupus familiaris; conditions: in vivo
[16] = system: Callithrix jacchus; assay: Oral bioavailability in marmoset; format: ADME, organism-based; conditions: in vivo
[17] = target: T3, Renin-1 (Mus musculus, UniProt P06281); assay: Inhibition of mouse renin
T3 sequence (P06281 whole entry): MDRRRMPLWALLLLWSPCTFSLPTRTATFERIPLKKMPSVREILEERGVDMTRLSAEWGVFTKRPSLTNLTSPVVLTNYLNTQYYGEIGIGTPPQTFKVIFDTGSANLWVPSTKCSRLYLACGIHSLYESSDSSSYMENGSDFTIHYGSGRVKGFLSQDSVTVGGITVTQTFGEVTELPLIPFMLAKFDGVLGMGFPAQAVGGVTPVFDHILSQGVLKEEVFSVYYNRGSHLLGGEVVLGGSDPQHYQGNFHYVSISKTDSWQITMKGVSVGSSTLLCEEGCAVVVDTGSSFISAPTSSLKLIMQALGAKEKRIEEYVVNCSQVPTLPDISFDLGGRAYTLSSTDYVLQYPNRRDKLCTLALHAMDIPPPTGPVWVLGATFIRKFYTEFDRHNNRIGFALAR

[18] = Competitive inhibition of pig pepsin at pH 5; set-up: species or system Sus scrofa
[19] = target: Voltage-gated inwardly rectifying potassium channel KCNH2 (Homo sapiens, UniProt Q12809); assay: Inhibition of human ERG
Sequence of Voltage-gated inwardly rectifying potassium channel KCNH2 (Q12809 whole entry): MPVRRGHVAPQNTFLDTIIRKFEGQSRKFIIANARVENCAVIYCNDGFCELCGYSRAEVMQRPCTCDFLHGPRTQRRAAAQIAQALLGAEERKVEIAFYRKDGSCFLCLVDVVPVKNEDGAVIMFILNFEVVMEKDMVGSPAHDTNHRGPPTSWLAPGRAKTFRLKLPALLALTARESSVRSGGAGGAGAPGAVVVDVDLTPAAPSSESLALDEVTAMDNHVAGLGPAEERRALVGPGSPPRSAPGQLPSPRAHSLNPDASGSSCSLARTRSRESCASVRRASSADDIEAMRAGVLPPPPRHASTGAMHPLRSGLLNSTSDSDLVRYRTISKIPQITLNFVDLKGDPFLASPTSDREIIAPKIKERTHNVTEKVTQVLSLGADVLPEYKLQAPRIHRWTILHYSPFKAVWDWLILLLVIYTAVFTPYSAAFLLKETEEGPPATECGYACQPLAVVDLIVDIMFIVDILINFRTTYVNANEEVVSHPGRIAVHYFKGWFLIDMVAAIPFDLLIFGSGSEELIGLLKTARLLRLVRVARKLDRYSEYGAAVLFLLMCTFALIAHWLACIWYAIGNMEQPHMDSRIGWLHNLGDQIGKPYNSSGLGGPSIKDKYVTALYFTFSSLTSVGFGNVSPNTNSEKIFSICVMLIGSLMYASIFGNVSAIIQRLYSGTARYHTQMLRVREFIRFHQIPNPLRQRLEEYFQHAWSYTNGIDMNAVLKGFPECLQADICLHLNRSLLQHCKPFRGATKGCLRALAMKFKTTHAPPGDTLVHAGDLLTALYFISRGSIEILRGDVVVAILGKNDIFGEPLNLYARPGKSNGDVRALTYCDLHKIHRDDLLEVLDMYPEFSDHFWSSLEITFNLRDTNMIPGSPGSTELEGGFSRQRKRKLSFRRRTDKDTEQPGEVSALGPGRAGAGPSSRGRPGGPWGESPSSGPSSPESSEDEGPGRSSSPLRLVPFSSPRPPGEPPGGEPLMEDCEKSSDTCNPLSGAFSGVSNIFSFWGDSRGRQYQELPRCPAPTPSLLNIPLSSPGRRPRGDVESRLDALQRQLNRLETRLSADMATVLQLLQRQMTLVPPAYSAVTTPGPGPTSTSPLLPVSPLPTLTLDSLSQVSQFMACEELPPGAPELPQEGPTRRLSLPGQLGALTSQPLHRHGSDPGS

[20] = Oral bioavailability in monkey; format: ADME, organism-based, Macaca mulatta; conditions: rhesus monkey, in vivo
[21] = target: Cathepsin D (Homo sapiens, UniProt P07339); assay: Inhibition of cathepsin D
Sequence of Cathepsin D (P07339 65-162 limits assumed): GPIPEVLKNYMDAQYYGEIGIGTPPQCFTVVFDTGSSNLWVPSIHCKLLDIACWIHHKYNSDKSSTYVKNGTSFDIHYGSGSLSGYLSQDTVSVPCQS
Sequence of Cathepsin D (P07339 169-412 limits assumed): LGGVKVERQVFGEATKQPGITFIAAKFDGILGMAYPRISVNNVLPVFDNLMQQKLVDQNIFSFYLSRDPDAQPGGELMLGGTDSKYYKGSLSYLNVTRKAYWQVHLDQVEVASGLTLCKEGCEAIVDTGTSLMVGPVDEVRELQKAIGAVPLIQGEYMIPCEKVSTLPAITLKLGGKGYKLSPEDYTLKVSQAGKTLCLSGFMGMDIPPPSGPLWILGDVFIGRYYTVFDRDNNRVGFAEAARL

[22] = target: T4, Cathepsin E (Homo sapiens, UniProt P14091); assay: Inhibition of cathepsin E
T4 sequence (P14091 whole entry): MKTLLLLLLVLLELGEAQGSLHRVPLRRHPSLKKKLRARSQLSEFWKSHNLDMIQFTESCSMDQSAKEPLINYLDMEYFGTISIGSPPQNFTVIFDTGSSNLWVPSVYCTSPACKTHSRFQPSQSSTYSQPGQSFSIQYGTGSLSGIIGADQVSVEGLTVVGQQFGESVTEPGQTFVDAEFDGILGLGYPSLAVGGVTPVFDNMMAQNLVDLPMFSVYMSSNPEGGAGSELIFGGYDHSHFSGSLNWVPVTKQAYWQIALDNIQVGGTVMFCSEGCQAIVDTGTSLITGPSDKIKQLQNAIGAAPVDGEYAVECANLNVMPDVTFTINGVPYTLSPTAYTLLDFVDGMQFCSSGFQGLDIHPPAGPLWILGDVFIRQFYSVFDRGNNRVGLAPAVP

[23] = Oral bioavailability in rhesus monkey; format: ADME, organism-based, Macaca mulatta; conditions: in vivo
[24] = Elimination half life in dog; format: ADME, organism-based, Canis lupus familiaris; conditions: in vivo, read-out: beta t1/2 (converted)
[25] = Elimination half life in rhesus monkey; format: ADME, organism-based, Macaca mulatta; conditions: in vivo, read-out: beta t1/2 (converted)
[26] = target: Cytochrome P450 3A4 (Homo sapiens, UniProt P08684); assay: Inhibition of CYP3A4; format: ADME
Sequence of Cytochrome P450 3A4 (P08684 whole entry): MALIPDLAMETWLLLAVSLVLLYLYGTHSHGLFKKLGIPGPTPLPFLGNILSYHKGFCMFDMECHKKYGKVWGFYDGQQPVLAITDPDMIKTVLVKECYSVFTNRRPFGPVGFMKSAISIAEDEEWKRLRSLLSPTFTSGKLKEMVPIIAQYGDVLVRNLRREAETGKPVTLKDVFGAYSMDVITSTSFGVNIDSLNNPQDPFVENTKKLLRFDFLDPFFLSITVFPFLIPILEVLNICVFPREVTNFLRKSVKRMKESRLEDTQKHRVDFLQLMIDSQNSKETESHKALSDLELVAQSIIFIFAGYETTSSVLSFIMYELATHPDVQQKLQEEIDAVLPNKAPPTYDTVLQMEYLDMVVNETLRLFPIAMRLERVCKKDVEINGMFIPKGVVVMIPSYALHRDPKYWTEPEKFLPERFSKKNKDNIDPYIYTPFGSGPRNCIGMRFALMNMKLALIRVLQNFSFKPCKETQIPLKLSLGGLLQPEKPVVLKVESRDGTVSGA

[27] = Inhibition of Cytochrome P450; format: ADME

Cc1cc(Cl)c(OCCOc2ccc(C3=C(C(=O)N(Cc4cccc(C)c4C)C4CC4)[C@H]4CNC[C@@H](C3)N4)cc2)c(Cl)c1
IC50 [1]: 19 nM | IC50 [2]: 0.2 nM | logD [3]: > 4.9 | bioavailability [4]: 24% | bioavailability [5]: 24% | half-life [6]: 6.6 h | Tmax [7]: 10 h

CCCCNC(=O)[C@H](C)C[C@H](O)[C@@H](N)CC(C)(C)CC(=O)N1C[C@H](C(=O)OC)Cc2ccccc21
IC50 [2]: 0.8 nM

CCc1nc(N)nc(NCCNS(=O)(=O)c2ccc3ccccc3c2)c1-c1ccc2c(c1)N(CCCOC)C(=O)C(C)(C)O2
Kd [8]: 79 nM

COC[C@@H]1CNC[C@H](OCc2ccc3ccccc3c2)[C@H]1c1ccc(COC(=O)c2ccccc2Cl)cc1
IC50 [2]: 2 nM

Brc1ccc([C@H]2CCNC[C@@H]2OCc2ccc3ccccc3c2)cc1
IC50 [2]: 5000 nM

CCCCNC(=O)[C@@H](NC[C@@H]1CCCCOc2ccccc2C[C@H](NC(=O)OC(C)(C)C)C(=O)N[C@@H](Cc2cnc[nH]2)C(=O)N1)C(C)C
IC50 [9]: 20 nM

C=CC[C@H](NC(=O)CNS(=O)(=O)N1CCOCC1)C(=O)N[C@@H](CC1CC=C(c2cccc3ccccc23)CC1)[C@@H](O)[C@@H](O)CC(C)C (stereo not given in full)
IC50 [10]: 11 nM

COCCCCOc1ccccc1C(=O)NC[C@@H](C[C@H](N)[C@@H](O)C[C@H](C(=O)NCCC1CCN(C(C)=O)CC1)C(C)C)C(C)C
IC50 [1]: 0.3 nM

CCC(C)C[C@H](NC(=O)[C@@H](NC[C@@H](O)[C@@H](N)CCCc1ccc(-c2ccccc2)cc1)C(C)C)C(=O)NCCCc1ccccc1 (stereo not given in full)
IC50 [11]: 4 nM

COc1ccccc1COCCCOc1ccc(C2=C(C(=O)N(Cc3ccnc(OC)c3C)C3CC3)[C@H]3CNC[C@@H](C2)N3)cc1
IC50 [1]: 18 nM | IC50 [2]: 1.4 nM

COc1ccccc1COCCCOc1ccc([C@H]2CCNC[C@@H]2OCc2ccc3c(c2)N(CCNC(C)=O)CCC3)cc1
IC50 [1]: 0.6 nM | logD [3]: 3 | solubility [12]: 124 µg/mL (≈ 206 µM)

COc1ccccc1COCCCOc1ccc([C@@H]2[C@@H](OCc3cc(OC)c4ccccc4c3)CNC[C@H]2OC[C@H](O)CO)cc1
IC50 [1]: 2.2 nM | IC50 [2]: 0.06 nM | solubility [12]: 24 µg/mL (≈ 38 µM) | bioavailability [13]: 27% | logD [14]: 3.7

COc1ccccc1COCCCOc1ccc(N2CCNC[C@@H]2COC2=CC3C(C=C2)CCCN3CCNC(C)=O)cc1 (stereo not given in full)
IC50 [2]: 0.5 nM

COc1ccccc1COCCCOc1ccc(N2C(=O)CNC[C@@H]2COC2=CC3C(C=C2)CCCN3CCNC(C)=O)cc1 (stereo not given in full)
IC50 [2]: 0.29 nM

COCCCN1C(=O)COC2C=CC(OC[C@H]3CNCC(=O)N3c3ccc(OCCCOCc4ccccc4OC)cc3)=CC21 (stereo not given in full)
IC50 [2]: 0.68 nM

COCCCN1C(=O)COC2C=CC(SC[C@H]3CNCC(=O)N3c3ccc(OCCCOCc4ccccc4OC)cc3)=CC21 (stereo not given in full)
IC50 [2]: 0.18 nM

CCc1nc(N)nc(NCCc2ccccc2NC(=O)c2ccc(N)c(OC)c2)c1-c1ccc2c(c1)N(CCCOC)C(=O)C(C)(C)O2
Kd [8]: 270 nM

COc1ccccc1COCCCOc1ccc(C2=C(C(=O)N(Cc3cccc(OC)c3C)C3CC3)[C@H]3CNC[C@@H](C2)N3)cc1
IC50 [2]: 0.62 nM

CCCCNC(=O)[C@H](C)C[C@H](O)[C@@H](N)C[C@@H](CNC(=O)c1cn(CC)c2ccccc12)C(C)C
IC50 [1]: 4 nM

CC(C)C[C@H](O)[C@H](O)[C@H](CC1CCCCC1)NC(=O)[C@H](Cc1cnc[nH]1)NC(=O)C[C@H](C)c1ccccc1
IC50 [2]: 11 nM

COc1cccc(OCCCc2cccnc2)c1C(=O)N[C@@H](CC1CCCCC1)[C@@H](O)[C@@H](O)CC(C)C
IC50 [2]: 39 nM

CCCCNC(=O)[C@H](C)C[C@H](O)[C@@H](N)C[C@H](C)COC(=O)c1cn(Cc2ccccc2)c2ccccc12
IC50 [2]: 1 nM

CNC[C@H](CC1CCCCC1)NC(=O)N1CCC[C@@H]([C@@H](OCCCOC)c2ccccc2)C1
IC50 [1]: 447 nM | bioavailability [4]: 36%

CC[C@H]1CC[C@](O)(CCc2ccccc2)C[C@@H]1C(=O)N[C@@H](CC1CCCCC1)[C@@H](O)[C@@H](O)CC(C)C
IC50 [2]: 11 nM

COCCCOc1cc(C[C@@H](C[C@H](N)[C@@H](O)C[C@H](C(=O)NCC(C)(C)C(N)=O)C(C)C)C(C)C)ccc1OC
F [15]: 32% | F [16]: 16% | IC50 [17]: 4.5 nM

COc1ccc(CO[C@H]2CNCC[C@@H]2c2ccc(Cl)cc2)cc1
IC50 [2]: 25000 nM | IC50 [18]: 1500 nM

COc1ccccc1COCCCOc1ccc([C@H]2CCNC[C@@H]2OCc2ccc3c(c2)NCCC3)cc1
IC50 [1]: 31 nM | IC50 [2]: 0.21 nM | logD [3]: 5.6 | solubility [12]: 3 µg/mL (≈ 5.81 µM)

COC[C@@H](O)CO[C@@H]1CNC[C@H](OCc2cc(OC)c3ccccc3c2)[C@H]1c1ccc(OCCCOCc2ccccc2OC)cc1
IC50 [1]: 8.9 nM | solubility [12]: 3 µg/mL (≈ 4.65 µM) | bioavailability [13]: 6% | logD [14]: 5.7

CCc1nc(N)nc(N)c1-c1ccc2c(c1)N(CCNC(C)=O)C(=O)[C@](C)(c1ccccc1)O2
bioavailability [4]: 10%

CNC[C@H](CC1CCCCC1)NC(=O)N1CCC[C@@H]([C@@](O)(CCCCOC)c2cccc(Cl)c2)C1
solubility [12]: > 1000 µg/mL | bioavailability [4]: 13% | IC50 [19]: > 30000 nM

O=C(C1=C(c2ccc(CCCOc3c(F)ccc(F)c3Cl)cc2)C[C@@H]2CNC[C@H]1N2)N(Cc1cccc(Cl)c1Cl)C1CC1
logD [3]: > 4.6 | bioavailability [13]: 36% | bioavailability [20]: 9% | IC50 [21]: 2700 nM | IC50 [22]: 8100 nM | bioavailability [23]: 9% | half-life [24]: 10 h | half-life [25]: 10 h | IC50 [26]: > 10000 nM

COc1ccccc1COCCCOc1ccc(N2C(=O)CNC[C@@H]2COCc2cccnc2)cc1
IC50 [2]: 12 nM

CNC[C@H](CC1CCCCC1)NC(=O)N1CCC[C@@H]([C@@H](OCCNC(=O)OC)c2cccc(Cl)c2)C1
IC50 [1]: 0.8 nM | bioavailability [4]: 9%

CCc1nc(N)nc(N)c1-c1ccc2c(c1)N(CCCO)C(=O)C(C)(c1ccccc1)O2 (racemic)
bioavailability [4]: 44% | IC50 [27]: > 30000 nM

CN[C@H](CNC(=O)N1CCC[C@@H]([C@@H](OCCNC(=O)OC)c2cccc(Cl)c2)C1)C[C@H]1CCCOC1 [VTP-27999]
IC50 [1]: < 10 nM
